From patent US8088758B2, “17β-hydroxysteroid dehydrogenase type I inhibitors” (Abbott Products GmbH, priority 2003, dated 2012) come the findings set out here.

For orientation: inhibition means the share of the control response that was lost under treatment.

Structures are written as SMILES.

This assay deals with T1, recombinant human 17β-hydroxysteroid dehydrogenase type 1 (Homo sapiens, UniProt P14061).
T1 construct: made in house; host or cells: Sf9 insect cells (baculovirus, Bac to Bac Expression System)
T1 sequence (P14061 1-328): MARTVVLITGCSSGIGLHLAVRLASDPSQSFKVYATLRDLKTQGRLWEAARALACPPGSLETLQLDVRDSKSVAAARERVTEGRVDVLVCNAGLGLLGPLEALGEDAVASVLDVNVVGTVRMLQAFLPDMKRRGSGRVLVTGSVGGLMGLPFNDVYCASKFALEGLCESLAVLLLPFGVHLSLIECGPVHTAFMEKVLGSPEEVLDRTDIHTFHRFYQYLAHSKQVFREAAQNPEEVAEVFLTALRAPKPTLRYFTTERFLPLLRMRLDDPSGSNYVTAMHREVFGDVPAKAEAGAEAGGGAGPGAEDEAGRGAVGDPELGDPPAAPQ
The assay can be described thus: Inhibition of recombinant human 17β-hydroxysteroid dehydrogenase type 1 (conversion of 3H-estrone to estradiol, HPLC). The settings on record: 30 nM 3H-estrone, 1 mM NADPH, 30 min at RT; for inhibition at 0.1 µM: inhibitor 100 nM, read-out: Inhibition of rec. 17β-HSD1 (% inhibition), 100 nM; for inhibition at 1 µM: inhibitor 1 μm, read-out: Inhibition of rec. 17β-HSD1 (% inhibition), 1 μm. In kind it is biochemical. How it is done:
1. Inhibition of the 17β-hydroxysteroid Dehydrogenase Type 1 Enzyme
17β-HSD1 Purification: Recombinant baculovirus was generated by the “Bac to Bac Expression System” (Invitrogen). Recombinant bacmid was transfected to Sf9 insect cells using “Cellfectin Reagent” (Invitrogen). 60 h later cells were harvested; the microsomal fraction was isolated as described by Puranen et al. 1994. Aliquots were stored frozen until determination of enzymatic activity.
Assay—Inhibition of Recombinant Human 17β-hydroxysteroid Dehydrogenase Type 1:
Recombinant protein (0.1 μg/ml) was incubated in 20 mM KH2PO4 pH 7.4 with 30 nM 3H-estrone and 1 mM NADPH for 30 min at RT, in the presence of potential inhibitors at concentrations of 1 μM or 0.1 μM. Inhibitor stock solutions were prepared in DMSO. Final concentration of DMSO was adjusted to 1% in all samples. The enzyme reaction was stopped by addition of 10% trichloroacetic acid (final concentration). Samples were centrifuged in a microtiter plate at 4000 rpm for 10 min. Supernatants were applied to reverse phase HPLC on a Waters Symmetry C18 column, equipped with a Waters Sentry Guard column. Isocratic HPLC runs were performed at RT at a flow rate of 1 ml/min of acetonitrile:water 48:52 as running solvent. Radioactivity was monitored in the eluate by a Packard Flow Scintillation Analyzer. Total radioactivity for estrone and estradiol were determined in each sample and percent conversion of estrone to estradiol was calculated according to the following formula:
Percent inhibition was calculated as follows: % inhibition=100−% conversion

On to `C[C@]12CC[C@@H]3c4ccc(O)cc4CC[C@H]3[C@@H]1[C@H](CCCC(=O)N1CCOCC1)CC2=O` [Example 1, 3-Hydroxy-15β-(4-morpholin-4-yl-4-oxo-butyl)-estra-1,3,5(10)-trien-17-one], for which the inhibition at 0.1 µM was found to be 49.9% and the inhibition at 1 µM is 80.2%.
Consider `C[C@]12CC[C@@H]3c4ccc(O)cc4CC[C@H]3[C@@H]1[C@H](CCCC(=O)NCc1ccccc1)CC2=O` [Example 3A, N-Benzyl-4-(3-hydroxy-17-oxo-estra-1,3,5(10)-trien-15β-yl)-butyramide], for which the inhibition at 0.1 µM stood at 51.6% and the inhibition at 1 µM came to 84.1%.
The corresponding values for `COc1ccc2c(c1)CC[C@H]1[C@@H]3[C@H](CCCC(=O)NCc4ccccc4)CC(=O)[C@@]3(C)CC[C@H]21` [Example 3B, N-Benzyl-4-(3-methoxy-17-oxo-estra-1,3,5(10)-trien-15β-yl)-butyramide] are 77.4% and 82.1%.
As for `CNC(=O)CCC[C@@H]1CC(=O)[C@@]2(C)CC[C@@H]3c4ccc(O)cc4CC[C@H]3[C@H]12` [Example 4A, 4-(3-Hydroxy-17-oxo-estra-1,3,5(10)-trien-15β-yl)-N-methyl-butyramide], the inhibition at 0.1 µM is 47.1% and the inhibition at 1 µM amounted to 66%.
As for `CNC(=O)CCC[C@@H]1CC(=O)[C@@]2(C)CC[C@@H]3c4ccc(OC)cc4CC[C@H]3[C@H]12` [Example 4B, 4-(3-Methoxy-17-oxo-estra-1,3,5(10)-trien-15β-yl)-N-methyl-butyramide], the inhibition at 0.1 µM was determined as 30.5% and the inhibition at 1 µM came to 60.8%.
`COc1ccc2c(c1)CC[C@H]1[C@@H]3[C@H](CCCC(=O)NCc4ccco4)CC(=O)[C@@]3(C)CC[C@H]21` [Example 7]: the inhibition at 0.1 µM stood at 28.7% and the inhibition at 1 µM worked out at 63.4%.
`COc1ccc2c(c1)CCC1C2CC[C@]2(C)C(=O)C[C@@H](CCCC(=O)NCCc3ccc(O)cc3)C12` (some centres unmarked) [Example 22]: the inhibition at 0.1 µM is 27.3% and the inhibition at 1 µM came out at 57.8%.
As to `COc1ccc2c(c1)CCC1C2CC[C@]2(C)C(=O)C[C@@H](CCCC(=O)NCCc3cccs3)C12` (some centres unmarked) [Example 29], the inhibition at 0.1 µM came to 29.6% and the inhibition at 1 µM stood at 69.3%.
For `COc1ccc2c(c1)CCC1C2CC[C@]2(C)C(=O)C[C@@H](CCCC(=O)NCCc3c[nH]c4c(C)cccc34)C12` (some centres unmarked) [Example 31], the inhibition at 0.1 µM is 52.8% and the inhibition at 1 µM was 77.9%.
On to `Cc1cccc2c(CCNC(=O)CCC[C@@H]3CC(=O)[C@@]4(C)CC[C@@H]5c6ccc(O)cc6CC[C@H]5[C@H]34)c[nH]c12` [Example 36, 4-(3-Hydroxy-17-oxo-estra-1,3,5(10)-trien-15β-yl)-N-[2-(7-methyl-1H-indol-3-yl)-ethyl]-butyramide], for which the inhibition at 0.1 µM was 72.9% and the inhibition at 1 µM is 94.3%.
The corresponding values for `C[C@]12CC[C@@H]3c4ccc(O)cc4CC[C@H]3[C@@H]1[C@H](CCCC(=O)NCc1ccc(F)cc1F)CC2=O` [Example 37, N-(2,4-Difluoro-benzyl)-4-(3-hydroxy-17-oxo-estra-1,3,5(10)-trien-15β-yl)-butyramide] are 47.4% and 87.2%.
Consider `CN(Cc1ccccc1)C(=O)CCC[C@@H]1CC(=O)[C@@]2(C)CC[C@@H]3c4ccc(O)cc4CC[C@H]3[C@H]12` [Example 38, N-Benzyl-4-(3-hydroxy-17-oxo-estra-1,3,5(10)-trien-15β-yl)-N-methyl-butyramide], for which the inhibition at 0.1 µM was determined as 60.5% and the inhibition at 1 µM turned out to be 89.5%.
The corresponding values for `C[C@]12CC[C@@H]3c4ccc(O)cc4CC[C@H]3[C@@H]1[C@@H](CCCC(=O)NCc1ccccc1)CC2=O` [Example 39, N-Benzyl-4-(3-hydroxy-17-oxo-estra-1,3,5(10)-trien-15α-yl)-butyramide] are 41.8% and 82.4%.
In the same order, the values of `C[C@]12CC[C@@H]3c4ccc(O)cc4CC[C@H]3[C@@H]1[C@@H](CCCC(=O)N1CCOCC1)CC2=O` [Example 40, 3-Hydroxy-15α-(4-morpholin-4-yl-4-oxo-butyl)-estra-1,3,5(10)-trien-17-one] are 32.3% and 79.4%.
In the same order, the values of `COc1ccc2c(c1)CCC1C2CC[C@]2(C)C(=O)C[C@H](C(=O)NCc3nc4ccccc4[nH]3)C12` (some centres unmarked) [Example 58] are 25% and 65.3%.
Take `COc1ccc2c(c1)CCC1C2CC[C@]2(C)C(=O)C[C@H](C(=O)Nc3ncc(C)s3)C12` (some centres unmarked) [Example 105]: the inhibition at 0.1 µM was determined as 33.8% and the inhibition at 1 µM turned out to be 81%.
The corresponding values for `COc1ccc2c(c1)CCC1C2CC[C@]2(C)C(=O)C[C@H](C(=O)N(C)Cc3cccc4ccccc34)C12` (some centres unmarked) [Example 152] are 25.6% and 41.4%.
The corresponding values for `COc1ccc2c(c1)CC[C@H]1[C@@H]3[C@H](CCC(=O)NC4CCCCC4)CC(=O)[C@@]3(C)CC[C@H]21` [Example 310] are 67.9% and 91.7%.
As to `COc1ccc2c(c1)CC[C@H]1[C@@H]3[C@H](CCC(=O)N(C)C4CCCCC4)CC(=O)[C@@]3(C)CC[C@H]21` [Example 313], the inhibition at 0.1 µM turned out to be 62.6% and the inhibition at 1 µM was 93%.
The corresponding values for `CCOC(=O)Cc1csc(NC(=O)CC[C@@H]2CC(=O)[C@@]3(C)CC[C@@H]4c5ccc(OC)cc5CC[C@H]4[C@H]23)n1` [Example 314] are 33.6% and 62.1%.
The corresponding values for `COc1ccc2c(c1)CC[C@H]1[C@@H]3[C@H](CCC(=O)NCc4ccc5c(c4)OCO5)CC(=O)[C@@]3(C)CC[C@H]21` [Example 315] are 29% and 74.4%.
The corresponding values for `COc1ccc2c(c1)CC[C@H]1[C@@H]3[C@H](CCC(=O)N4CCOCC4)CC(=O)[C@@]3(C)CC[C@H]21` [Example 316] are 25.3% and 74.5%.
As for `COc1ccc2c(c1)CC[C@H]1[C@@H]3[C@H](CCC(=O)NCc4cccc(F)c4)CC(=O)[C@@]3(C)CC[C@H]21` [Example 322], the inhibition at 0.1 µM was 45.7% and the inhibition at 1 µM stood at 66.3%.
As for `COc1ccc2c(c1)CC[C@H]1[C@@H]3[C@H](CCC(=O)NCc4ccc(Cl)cc4)CC(=O)[C@@]3(C)CC[C@H]21` [Example 323], the inhibition at 0.1 µM was 28.5% and the inhibition at 1 µM was 72.7%.
In the same order, the values of `COc1ccc2c(c1)CC[C@H]1[C@@H]3[C@H](CCC(=O)NCCc4ccc(O)cc4)CC(=O)[C@@]3(C)CC[C@H]21` [Example 324] are 57.9% and 91.5%.
In the same order, the values of `COc1ccc2c(c1)CC[C@H]1[C@@H]3[C@H](CCC(=O)NCCc4cccs4)CC(=O)[C@@]3(C)CC[C@H]21` [Example 327] are 28.7% and 77%.
In the same order, the values of `COc1ccc2c(c1)CC[C@H]1[C@@H]3[C@H](CCC(=O)Nc4ncc(C)s4)CC(=O)[C@@]3(C)CC[C@H]21` [Example 329] are 78.9% and 96.2%.
For the molecule `COc1ccc2c(c1)CC[C@H]1[C@@H]3[C@H](CCCCC(=O)NC4CC4)CC(=O)[C@@]3(C)CC[C@H]21` [Example 330], the inhibition at 0.1 µM stood at 25.2% and the inhibition at 1 µM came to 75.9%.
In the same order, the values of `COc1ccc2c(c1)CC[C@H]1[C@@H]3[C@H](CCCCC(=O)NC4CCCCC4)CC(=O)[C@@]3(C)CC[C@H]21` [Example 331] are 37% and 88%.
For the molecule `COc1ccc2c(c1)CC[C@H]1[C@@H]3[C@H](CCCCC(=O)NCc4ccco4)CC(=O)[C@@]3(C)CC[C@H]21` [Example 333], the inhibition at 0.1 µM came out at 47.9% and the inhibition at 1 µM was found to be 91%.
In the same order, the values of `COc1ccc2c(c1)CC[C@H]1[C@@H]3[C@H](CCCCC(=O)NCc4ccc5c(c4)OCO5)CC(=O)[C@@]3(C)CC[C@H]21` [Example 335] are 59% and 90.5%.
